Laboratory results from patent EP2519511B1, “NOVEL PIPERINE DERIVATIVES AS GABA-A RECEPTORS MODULATORS” (Universität Wien, priority 2009, dated 2011).
Values joined by “and” are separate entries in the source; they are usually repeats but may differ in a detail not shown here. Equal values may be shown once.

Key:
[1] = tested on: Male mice (C57BI/6N); assay: Open Field test (OF); assay type: in vivo; settings: 30 mg/kg bodyweight; for effect on total ambulation / total distance: 30 min after i.p. injection, Fig. 11B
Procedure: (§1) Piperine was isolated from Piper nigrum as described by Zaugg et al. (2010) and obtained from SigmaAldrich (Vienna, Austria), respectively. Piperine derivatives were synthesized as described above. Stock solutions (1mg/10 µl) were prepared in DMSO (Dimethyl Sulfoxide, Sigma, Austria).Working concentrations were adjusted by dilution with 0.9% sodiumchloride. pH was adjusted to 7.2-7.4 with NaOH. For better solubility 3% of Tween80 was added to all solutions. All solutions were freshly prepared every day prior to experiments. Care was taken for equal amounts of DMSO in the actein and control solutions.
(§2) Male mice (C57BI/6N) were obtained from Charles River Laboratories (Germany). For breeding and maintenance mice were group housed with free access to food and water. Temperature was fixed to 23±1 °C and 60% humidity with a 12 h light-dark cycle (lights on 0700-1900 hours). Male mice at 3-6 months age were tested in all experiments. Every effort was taken to minimize the number of animals used (Khom et al., 2010).
Ambulation was tested over 10 min in a 50x50 cm flexfield box equipped with infrared rearing detection. Illumination was set to 150 lux. Animals were video monitored and their explorative behavior was analyzed using the Actimot 2 equipment and software (TSE-systems, Bad Homburg, Germany). Arenas were subdivided into border (up to 8 cm from wall), center (20x20 cm, i.e. 16% of total area), and intermediate area according to the recommendations of EMPRESS (European Mouse Phenotyping Resource of Standardised Screens; http://empress.har.mrc.ac.uk).

[2] = target: GABAA channels composed of α1β2γ2 subunits (Homo sapiens, UniProt P14867+P18507+P47870); assay: Modulation of IGABA, two-microelectrode voltage clamp in Xenopus laevis oocytes; assay type: cell-based; settings: α1β2γ2, GABA EC5-10, Fig. 2
Sequence of GABAA channels composed of α1β2γ2 subunits (P14867 28-456): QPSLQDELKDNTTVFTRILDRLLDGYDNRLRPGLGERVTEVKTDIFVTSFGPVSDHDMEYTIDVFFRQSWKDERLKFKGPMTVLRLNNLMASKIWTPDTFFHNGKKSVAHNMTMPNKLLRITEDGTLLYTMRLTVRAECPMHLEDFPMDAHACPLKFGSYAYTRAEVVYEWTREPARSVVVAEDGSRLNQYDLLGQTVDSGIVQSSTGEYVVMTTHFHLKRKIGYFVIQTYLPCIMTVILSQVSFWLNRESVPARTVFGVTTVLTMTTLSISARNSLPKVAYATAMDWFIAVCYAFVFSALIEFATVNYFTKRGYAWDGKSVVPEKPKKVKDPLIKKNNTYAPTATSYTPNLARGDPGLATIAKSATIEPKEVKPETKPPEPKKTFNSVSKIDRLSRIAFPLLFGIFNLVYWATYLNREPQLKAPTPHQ
Sequence of GABAA channels composed of α1β2γ2 subunits (P47870 25-512 limits assumed): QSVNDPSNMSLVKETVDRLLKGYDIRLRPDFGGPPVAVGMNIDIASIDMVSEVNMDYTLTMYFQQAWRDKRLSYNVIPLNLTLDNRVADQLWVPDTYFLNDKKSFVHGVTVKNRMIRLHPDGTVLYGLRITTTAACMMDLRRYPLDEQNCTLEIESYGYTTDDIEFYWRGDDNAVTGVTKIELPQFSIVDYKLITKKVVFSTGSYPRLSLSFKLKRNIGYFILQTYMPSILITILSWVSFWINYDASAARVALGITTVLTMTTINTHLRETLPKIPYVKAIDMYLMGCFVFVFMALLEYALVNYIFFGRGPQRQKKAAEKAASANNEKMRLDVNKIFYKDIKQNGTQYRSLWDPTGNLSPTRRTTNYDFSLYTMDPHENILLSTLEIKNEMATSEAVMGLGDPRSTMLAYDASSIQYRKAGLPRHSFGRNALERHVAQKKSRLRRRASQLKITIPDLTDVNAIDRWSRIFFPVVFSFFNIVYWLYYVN
Sequence of GABAA channels composed of α1β2γ2 subunits (P18507 40-475): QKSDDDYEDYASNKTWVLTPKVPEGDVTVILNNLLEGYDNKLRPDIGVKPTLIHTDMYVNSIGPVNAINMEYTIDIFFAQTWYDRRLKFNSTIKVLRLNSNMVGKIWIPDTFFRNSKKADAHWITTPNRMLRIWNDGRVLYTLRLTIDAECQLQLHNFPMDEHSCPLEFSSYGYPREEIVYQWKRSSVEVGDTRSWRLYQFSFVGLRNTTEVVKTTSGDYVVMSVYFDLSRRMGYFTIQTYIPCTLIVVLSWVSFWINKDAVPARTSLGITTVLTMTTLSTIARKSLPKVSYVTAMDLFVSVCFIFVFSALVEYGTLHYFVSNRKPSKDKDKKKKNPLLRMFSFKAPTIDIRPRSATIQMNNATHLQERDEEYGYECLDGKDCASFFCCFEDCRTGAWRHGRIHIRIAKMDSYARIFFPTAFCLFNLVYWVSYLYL
Procedure: The following paragraphs describe the preparation of oocytes expressing the specific GABAA receptor subtype composed of α1, β2 and γ2 subunits and the subsequent analysis of the concentration-response curves of the stimulation of chloride currents through GABAA receptors (IGABA).
Preparation of stage V-VI oocytes from Xenopus laevis, synthesis of capped off run-off poly(A^+) cRNA transcripts from linearized cDNA templates (pCMV vector) was performed as described (Khom et al. 2006). Briefly, female Xenopus laevis (NASCO, USA) were anaesthetised by exposing them for 15 minutes to a 0.2 % solution of MS-222 (methane sulfonate salt of 3-aminobenzoic acid ethyl ester; Sandoz) before surgically removing parts of the ovaries. Follicle membranes from isolated oocytes were enzymatically digested with 2 mg/ml collagenase (Type 1A, Sigma). One day after isolation, the oocytes were injected with about […] of DEPC- treated water (diethyl pyrocarbonate, Sigma, Germany) containing the different cRNAs (encoding for α1, β2 and γ2 subunits) at a concentration of approximately 300 - 3000 pg/µl/subunit. The amount of cRNA was determined by means of a NanoDrop ND-1000 (Kiskerbiotech, Steinfurt, Germany).
Oocytes were stored at 18°C in ND96 solution (Methfessel et al., 1986). […]
Stimulation of chloride currents by modulators of the GABAA receptor was measured at a GABA concentration eliciting between 5 and 10 % of the maximal current amplitude (EC5-10). The EC5-10 was determined at the beginning of each experiment.
Enhancement of the chloride current was defined as (I(GABA+Comp)/IGABA) - 1, where I(GABA+Comp) is the current response in the presence of a given compound (piperine or piperin derivatives) and IGABA is the control GABA current. […] Statistical significance was calculated using paired Student t-test with a confidence interval of p < 0.05 (Khom et al., 2007). […]

[3] = tested on: PTZ-induced seizures; assay: Seizure threshold by PTZ tail-vein infusion; assay type: in vivo, mice; settings: for effects on seizure threshold: PTZ 30 min after i.p. injection; for seizure threshold: 30 min after i.p. injection
Procedure: as §1, §2
Seizure threshold was determined by PTZ tail-vein infusion on freely moving animals at a rate of 100 µl/min ([…] PTZ in saline, pH 7.4). […] Animals were immediately killed by cervical displacement after the first generalized seizure. The seizure threshold dose was calculated from the infused volume in relation to body weight (Loacker et al. 2007). Piperine and piperine derivatives were applied at doses from 0.1 to 30 mg/kg 30 min before PTZ infusion. Control animals were pretreated with 10 % DMSO in saline containing 3 % Tween 80 (i. e. the solvent for all piperine doses).

[4] = tested on: Male mice (C57BI/6N); assay: Elevated Plus Maze test (EPM); assay type: in vivo; settings: for total distance travelled in the EPM: compared to control
Procedure: as §1, §2
The animals's behavior was tested over 5 min on an elevated plus maze 1 m above ground consisting of two closed and two open arms, each 50x5 cm in size (Khom et al., 2010). The test instrument was built from gray PVC; the height of closed arm walls was 20 cm. Illumination was set to 180 lux. Animals were placed in the center, facing an open arm. Analysis of open and closed arm entries and time on open arm was automatically done with Video-Mot 2 equipment and software (Khom et al., 2010).

[5] = target: human TRPV1 receptor (hTRPV1) (Homo sapiens, UniProt Q8NER1); assay: Activation of cation current through TRPV1 expressed in Xenopus oocytes; assay type: cell-based; settings: 300 µM applied to oocytes, Fig. 4
Sequence of human TRPV1 receptor (hTRPV1) (Q8NER1 whole entry): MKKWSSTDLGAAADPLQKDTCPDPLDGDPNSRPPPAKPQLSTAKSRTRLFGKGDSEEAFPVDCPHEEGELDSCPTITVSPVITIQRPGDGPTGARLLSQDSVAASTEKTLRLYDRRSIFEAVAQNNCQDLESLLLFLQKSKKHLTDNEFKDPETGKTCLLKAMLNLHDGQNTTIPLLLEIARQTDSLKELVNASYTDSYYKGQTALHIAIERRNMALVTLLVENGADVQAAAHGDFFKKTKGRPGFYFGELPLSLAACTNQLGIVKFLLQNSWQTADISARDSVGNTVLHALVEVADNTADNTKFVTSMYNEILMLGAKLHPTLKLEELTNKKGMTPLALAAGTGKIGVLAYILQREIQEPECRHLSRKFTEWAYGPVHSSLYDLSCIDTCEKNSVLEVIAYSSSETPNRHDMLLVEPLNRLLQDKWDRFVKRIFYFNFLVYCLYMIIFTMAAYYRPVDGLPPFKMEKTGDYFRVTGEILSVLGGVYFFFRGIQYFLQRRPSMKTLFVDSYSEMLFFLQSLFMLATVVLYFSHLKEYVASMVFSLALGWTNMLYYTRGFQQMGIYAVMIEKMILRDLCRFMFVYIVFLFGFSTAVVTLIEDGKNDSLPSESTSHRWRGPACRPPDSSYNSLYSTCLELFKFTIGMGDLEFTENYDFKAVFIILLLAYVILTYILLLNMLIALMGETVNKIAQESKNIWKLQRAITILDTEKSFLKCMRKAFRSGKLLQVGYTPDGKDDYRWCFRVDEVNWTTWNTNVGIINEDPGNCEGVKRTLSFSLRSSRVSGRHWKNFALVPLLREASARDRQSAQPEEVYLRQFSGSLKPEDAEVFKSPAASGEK
Procedure: cRNA encoding for the human TRPV1 receptor (hTRPV1) was injected into Xenopus oocytes as previously described (Hu et al. 2004).

cation current through TRPV1 receptors [5]	SMILES	effect on total ambulation / total distance [1]	modulation of IGABA [2]	effects on seizure threshold ([3]; Fig. 12)	time spent on the open arms (OA) in % of the total time ([4]; 0.3 mg/kg bodyweight, i.p.)	other results
no current was induced	CCCN(CCC)C(=O)/C=C/C=C/c1ccc2c(c1)OCO2 [SCT-64]	reduced the total distance	positive allosteric modulatory effect by enhancing IGABA	particularly active at low concentrations	41.6 ± 3.2% and 44.2 ± 3.3%	time spent on the open arms (OA) in % of the total time ([4]; 10 mg/kg bodyweight, i.p.): 59.6 ± 4.9%; total distance travelled in the EPM ([4]; i.p.): reducing slightly the total ambulation at doses ≥1 mg/kg bodyweight; cation current through TRPV1 receptors ([5]; listed as SCT64): none of the derivatives SCT29, SCT64 or SCT66 induced cation currents
no current was induced	CC(C)CN(CC(C)C)C(=O)/C=C/C=C/c1ccc2c(c1)OCO2 [SCT-66]	reduced the total distance	positive allosteric modulatory effect by enhancing IGABA		40.8 ± 3.2% and 38.1 ± 5.1%	minimal effective dose ([3]; Mus musculus, ip, 0.5 h, i.p., Fig. 12, read-out: doses of first significant effects on seizure threshold): ≥ 10 mg/kg; time spent on the open arms (OA) in % of the total time ([4]; 3 mg/kg bodyweight, i.p.): 46.5 ± 6.6%; total distance travelled in the EPM ([4]; i.p.): no significant effect on ambulation; cation current through TRPV1 receptors ([5]; listed as SCT66): none of the derivatives SCT29, SCT64 or SCT66 induced cation currents
no current was induced	CCCCN(CCCC)C(=O)/C=C/C=C/c1cc(OC)c(OC)c(OC)c1 [SCT-68]					

Continued, molecule first:

SMILES	cation current through TRPV1 receptors [5]	effect on total ambulation / total distance [1]	modulation of IGABA [2]	effects on seizure threshold ([3]; Fig. 12)	time spent on the open arms (OA) in % of the total time ([4]; 0.3 mg/kg bodyweight, i.p.)	other results
CCCCN(CCCC)C(=O)/C=C/C=C/c1ccc2c(c1)OCO2 [SCT-29]	no current was induced	no effect on ambulation	positive allosteric modulatory effect by enhancing IGABA	particularly active at low concentrations	not statistically significant	cation current through TRPV1 receptors ([5]; listed as SCT29): none of the derivatives SCT29, SCT64 or SCT66 induced cation currents
CC(C)N(C(=O)/C=C/C=C/c1ccc2c(c1)OCO2)C(C)C [SCT-46]	no current was induced					
CCN(CC)C(=O)/C=C/C=C/c1ccc2c(c1)OCO2 [SCT-54]		no effect on ambulation		particularly active at low concentrations		
O=C(/C=C/C=C/c1ccc2c(c1)OCO2)N1CCCCC1 [piperine, Piperine]					42.7 ± 4.4%	reduction of ambulation compared to control littermates ([1]; i.p.): more than 50%; traveled distance (total ambulation) ([1]; i.p.): 16.5 ±3.8 m; seizure threshold ([3]; 3 mg/kg): 46.2 ± 5.44; seizure threshold ([3]; 10 mg/kg): 48.7 ± 2.13; seizure threshold ([3]; 30 mg/kg): 30.3 ± 3.43; time spent on the open arms (OA) in % of the total time ([4]; 0.1 mg/kg bodyweight, 30 min after i.p. injection): no significant effect; time spent on the open arms (OA) in % of the total time ([4]; 1 mg/kg bodyweight, i.p.): 45.6 ± 6.6%
